The subject of data set [1] is caspase 3/7 in A673 cells. As to the kind of experiment: Caspase 3/7 activity (ApoTox-Glo Triplex Assay). It is filed as cell-based, human. The conditions noted are these: A673, 48h and 72h, concentration dependent. As to the method:
A673 cells were plated at a density of 5 × 10^3 cells/well in 96 well plates. At 48h and 72h post drug exposure, 100μl of Caspase-Glo 3/7 reagent provided in the ApoTox -Glo Triplex Assay (Promega, USA) was added as per the protocol and the luminescence, which indicates caspase activation, was measured using the Synergy H1 hybrid microplate reader.

Data set [2] deals with A673 cells. As to the kind of experiment: Comet assay. It is filed as cell-based, human. The conditions noted are these: A673, 3h. As to the method:
(§1) We used comet assay, which includes single cell gel electrophoresis to assess DNA breaks when exposed to radiation or DNA damaging agents. […] Olive moment (micrometers), a product of tail DNA% and the distance between the centroids of head and tail, is an accurate parameter of DNA damage. […] Gamma-H2AX (γH2AX) phosphorylation is the initial step in DNA damage response following double stranded breaks and is responsible for recruiting DNA repair proteins.
Comet assay was performed according to the protocol described earlier. […] The cells in agarose were transferred to slides coated with normal melting point agarose. The agarose-immobilized cells were lysed in alkaline solution and the agarose trapped DNA was electrophoresed. DNA was stained with ethidium bromide and image acquisition was done immediately. DNA damage quantification was performed using OpenComet v1.3, an open-source software plugin in Image J 1.47v software (NIH, USA) for automated analysis. Olive moment, which is the product of tail DNA% and the distance between the intensity-weighted centroids of head and tail was taken from the output for analysis.

The test system of the next data set is Human MSC. As to the kind of experiment: Comet assay. It is filed as cell-based. Conditions: 3h. As to the method: as §1
Comet assay was performed according to the protocol described earlier. Cells were treated with BO-1055 at 2μM concentration for 3h, or immediately after exposure to 8Gy radiation after which they were isolated and mixed with 1% low melting point agarose in a tube. The cells in agarose were transferred to slides coated with normal melting point agarose. The agarose-immobilized cells were lysed in alkaline solution and the agarose trapped DNA was electrophoresed. DNA was stained with ethidium bromide and image acquisition was done immediately. DNA damage quantification was performed using OpenComet v1.3, an open-source software plugin in Image J 1.47v software (NIH, USA) for automated analysis. Olive moment, which is the product of tail DNA% and the distance between the intensity-weighted centroids of head and tail was taken from the output for analysis.

A further data set deals with γH2AX in A673 cells. Put plainly: γ-H2AX expression by flow cytometry. The conditions noted are these: A673 compared to hMSC and cord blood CD34+ cells, 3h. It is filed as cell-based, human. As to the method:
Staining of γ-H2AX antigen was carried out following the manufacturer's protocol. Briefly, human sarcoma cells and human mesenchymal stem cells were treated with various concentrations of BO-1055 at 37°C. At 3h, the cultures were washed with 1 ml of cold PBS three times, detached with 0.05% trypsin, and cells were pelleted. The pelleted cells were resuspended with 0.2 ml Cytofix/Cytoperm solution (BD Bioscience), incubated at 4°C for 20 minutes, and then washed with 1 ml cold Perm/Wash solution (BD Bioscience) three times. After anti-human γ-H2AX antibody (BD Bioscience) staining, the specimens were subjected to flow cytometric analysis via a Calibur flow instrument (BD Bioscience).

Data set [3] deals with A673, H526 and U20S cells. Put plainly: Immunoblot analyses of DNA damage repair proteins. The format is cell-based, human. Conditions: 2μM, 6h and 24h. As to the method: Protein concentrations were determined using the BCA kit (Pierce Biotechnology, Rockford, IL) according to the manufacturer's instructions. Protein lysates (20-100 μg) were electrophoretically resolved by SDS/PAGE, transferred to nitrocellulose membrane, and probed with the indicated primary antibodies: Phospho-ATM (Ser1981) (D6H9) from rabbit (1:500, 5883, Cell Signaling, Danvers, MA), Phospho-BRCA1 (Ser1524) from rabbit (1:500, 9009, Cell Signaling), DNA-PK from rabbit (1:500, 4602, Cell Signaling), Mre11 (31H4) from rabbit (1:500, 4847, Cell Signaling) and Rad50 from rabbit (1:500, 3427, Cell Signaling). Membranes were then incubated with a 1:5,000 dilution of a peroxidase conjugated corresponding secondary antibody. Equal loading of the protein samples was confirmed by parallel western blots for β-actin (1:5,000, ab822750; Abcam). Detection was performed using the ECL-Enhanced Chemiluminescence Detection System (GE Healthcare Biosciences, Pittsburgh, PA) according to the manufacturer's instructions. Blots were visualized by autoradiography.

Data set [4] has as its system A673 cells. Put plainly: Drug combination study (Alamar Blue, Chou-Talalay combination index). It is filed as cell-based, human. As to the method: The AlamarBlue® cell proliferation assay was used to test the effect of a single drug and a combination of drugs. A673 cells (5 × 10^3 cells/well) were added to 96 well plates in triplicate. After 12h incubation, BO-1055 and a second drug (Topotecan, SN38, Doxorubicin or PU-H71) were added simultaneously in a lattice format in varying concentrations. Plates were read after 72h drug exposure. Combination indices were derived as described below to identify the interaction in two-drug combinations.
Data are presented as mean±S.E.M. of at least three independent experiments done in triplicate. The comparison of means between treated and control mice was performed using two-tailed T-test or ANOVA (for more than two groups) as implemented in GraphPad Prism (version 4; GraphPad Software). Graphpad Prism software was used to plot concentration-effect curves and determine the drug concentration that inhibited the growth of cell lines by 50% compared to the control (IC50). A p-value of 0.05 or less was considered significant. Combination index (CI) values, as calculated by CompuSyn software (Chou and Martin, 2007), were used to evaluate the interaction between BO-1055 and a second drug (Topotecan, SN38, Doxorubicin or PU-H71). The Chou-Talalay method was used to quantify the synergism (CI < 1), additive effect (CI = 1) and antagonism (CI > 1) of various drug combinations.

For a further data set, the system named is CCRF-CEM/Taxol cells. Also noted: method as in PMID 21106377. Conditions: CCRF-CEM/Taxol ref 6; cited from earlier work.
A further data set concerns leukemia cell lines. Also noted: method as in PMID 21106377. Conditions: leukemia cell lines ref 6; cited from earlier work.

Data on 1 compound can be found in article PMC5190008, “BO-1055, a novel DNA cross-linking agent with remarkable low myelotoxicity shows potent activity in sarcoma models” (Oncotarget, 2016).

With `CN(C)CCNC(=O)c1cccc(NC(=O)Nc2ccc(N(CCCl)CCCl)cc2)c1` [BO-1055], the “caspase 3/7 activity” value in data set [1] is “Activation”. Also, the “olive moment relative to radiation (XRT, 8Gy)” value is given as “comparable” in the data set on A673 cells [2] and “relatively less” in the data set on Human MSC. Moreover, the “comet tail size (DNA breaks)” value in the data set on A673 cells [2] (increasing concentration) is reported as “increased tail size”. Also, in the data set on γH2AX in A673 cells, the γH2AX level result was “significantly elevated”. In addition, the pATM result in data set [3] (A673, H526 and U20S) is listed as “activation of pATM”. Further, the pBRCA1 entry in data set [3] (U20S) is recorded as “upregulation of pBRCA1”. In addition, in data set [3] (sensitive lines (A673, H526)), the Rad50 entry is recorded as “Upregulation of Rad50”. Moreover, the “drug interaction (combination index)” value with A673 cells [4] (BO-1055 combined with PU-H71, A673, 72h) is “synergistic”; in the data set on A673 cells [4] (BO-1055 combined with SN-38, A673, 72h), “highly synergistic”; in the data set on A673 cells [4] (BO-1055 combined with doxorubicin, A673, 72h), “synergistic”; in the data set on A673 cells [4] (BO-1055 combined with topotecan, A673, 72h), “synergistic”. Besides, in the data set with CCRF-CEM/Taxol cells, the “resistance of CCRF-CEM/Taxol cells” value is recorded as 9.4 fold. For the same compound, the “cross resistance to taxol or vinblastine” value with leukemia cell lines is given as “little or no cross resistance”.
